The values that follow come from PubChem BioAssay (NCI).

Holding throughout (assay): growth of human tumour cells (NCI), 48 h
Assay [1] deals with T-47D breast.
The subject of assay [2] is KM12 colon.
For assay [3], the system named is COLO 205 colon.
The subject of assay [4] is MCF7 breast.
The test system of assay [5] is MOLT-4 leukemia.
Assay [6] has as its system BT-549 breast.
For assay [7], the system named is HOP-62 NSCLC.
Assay [8] concerns UO-31 renal.
In assay [9] the test system is SK-OV-3 ovarian.
Assay [10] relates to CAKI-1 renal.

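48-hour exposure; five concentrations; linearly interpolated endpoints. Abbreviation: GI50, concentration required for 50% inhibition of growth. At the TGI there is no net growth.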

On to `Cn1ncc2cc(-c3cnc(N)c(Cl)c3N3CCC4(CCNC4=O)CC3)ccc21`, for which the GI50 in assay [1] was 15.7 µM; in assay [2], 32.3 µM; in assay [3], 11.9 µM; in assay [4], 24.6 µM; in assay [5], 20.7 µM; in assay [6], 29.2 µM. In addition, the figures for the GI50 in assay [7], in [8] and in assay [9] were 21.6 µM, 17.7 µM and 31.5 µM, respectively. In addition, the TGI is 84.2 µM in assay [1]; greater than 100 µM in assay [2]; greater than 100 µM in assay [3]; greater than 100 µM in assay [4]; greater than 100 µM in assay [5]; greater than 100 µM in assay [6]. The TGI in assay [7], in [8] and in [9] was greater than 100 µM in each case.

As to `CO/N=C(\c1ccccc1)c1cnn(-c2ccccc2)c1N`, the GI50 in assay [1], in assay [2], in assay [10], in assay [3], in assay [4] and in assay [5] was greater than 25 µM throughout. In addition, the GI50 in [6], in [7], in assay [8] and in assay [9] was greater than 25 µM each time. In addition, the TGI in assay [1], in assay [2], in assay [10], in assay [3], in [4] and in [5] was greater than 25 µM in each case. The TGI in assay [6], in [7], in assay [8] and in [9] was greater than 25 µM in each case.

In the case of `O=C1OCC(c2ccc(O)c(O)c2)=C1c1cc(O)c(O)c(O)c1`, the GI50 in [1] was 23.2 µM; in assay [2], 23.8 µM; in assay [10], 14.3 µM; in assay [3] it was 23.3 µM; in [4], 36.9 µM; in assay [5], 12.9 µM. Also, the values for the GI50 in [6], in assay [7] and in assay [8] were 39 µM, 18.5 µM and 63.4 µM, respectively. Further, the TGI was 60.2 µM in [1]; 55.6 µM in assay [2]; 27.9 µM in [10]; 57.7 µM in [3]; greater than 100 µM in [4]; 27.8 µM in [5]. Moreover, the figures for the TGI in [6], in assay [7] and in assay [8] were greater than 100 µM, 33.3 µM and greater than 100 µM, respectively.

As to `CS(=O)(=O)c1nccc(-c2c(-c3cccc(OCc4ccc(F)cc4)c3)nc3sccn23)n1`, the GI50 in assay [1] was 9.52 µM; in assay [2], 2.95 µM; in assay [10], 3.41 µM; in assay [3], 45 µM; in [4] it was 8.31 µM; in assay [5], 2.64 µM. Also, the GI50 in [6] is 8.89 µM; in assay [7] it was 57.2 µM; in [8] it was 2.19 µM; in assay [9], 47.4 µM. For the same compound, the TGI in assay [1] was greater than 100 µM; in assay [2], 7.61 µM; in assay [10], greater than 100 µM; in assay [3] it was greater than 100 µM; in assay [4] it was greater than 100 µM; in assay [5], greater than 100 µM. The TGI was greater than 100 µM in assay [6], greater than 100 µM in [7], 5.57 µM in assay [8] and greater than 100 µM in [9].

Regarding `C=C1C(=O)O[C@H]2[C@H]1CC/C(COC(=O)OCCCCCOC(=O)OC/C1=C/CC[C@@]3(C)O[C@H]3[C@H]3OC(=O)C(=C)[C@@H]3CC1)=C\CC[C@@]1(C)O[C@@H]21`, the GI50 is 0.244 µM in assay [1]; 1.51 µM in assay [2]; 0.308 µM in assay [10]; 0.199 µM in assay [3]; 0.229 µM in [5]; 0.182 µM in [6]. The GI50 was 1.76 µM in assay [7], 0.674 µM in assay [8] and 2.93 µM in assay [9]. For the same compound, the TGI in assay [1] was determined as 0.75 µM; in [2] it was 3.31 µM; in [10], 1.02 µM; in assay [3] it was 0.438 µM; in [5], 0.727 µM; in assay [6] it was 0.437 µM. For the same compound, the results for the TGI in [7], in assay [8] and in assay [9] were 4.02 µM, 2.05 µM and 9.67 µM, respectively.

For `COc1cc2c(cc1OC)C13CCN4CC5=CCOC(CC(=O)O)C(C5CC41)C3N2` (stereo not drawn), the TGI in assay [2], in assay [10], in assay [3], in assay [4], in assay [5] and in [6] was greater than 100 µM in each case. For the same compound, the TGI in assay [7], in assay [8] and in [9] was greater than 100 µM in each case.

Consider `CN(C)c1c(Cl)c(=O)oc2c1ccc1nc(-c3ccccc3)sc12`, for which the TGI in [1], in [2], in assay [10], in assay [3], in assay [4] and in assay [5] was greater than 100 µM in each case. The TGI in [6], in assay [7] and in assay [8] was greater than 100 µM throughout.

On to `CCCOC(=O)N[C@H]1CCc2c(Br)c(OC)c(OC)c(OC)c2-c2ccc(SC)c(=O)cc21`, for which the GI50 is 14.1 µM in [1]; less than 0.0145 µM in [2]; 0.0339 µM in [10]; less than 0.01 µM in [4]; 0.0382 µM in [5]; 0.0223 µM in assay [6]. The GI50 in assay [7] was 0.0633 µM; in [8], 0.103 µM; in [9], 0.0726 µM. Further, the TGI was greater than 100 µM in assay [1]; 7.92 µM in assay [2]; 19.2 µM in [10]; 12.2 µM in assay [4]; greater than 100 µM in [5]; 6.39 µM in assay [6]. The TGI in assay [7] is greater than 100 µM; in [8] it was 21.9 µM; in assay [9], 59.5 µM.

On to `COc1ccc2c(c1)C(=O)c1c-2c(NCCCN(C)C)nc2ccccc12`, for which the GI50 in assay [1] was 17.8 µM; in [2], 2.05 µM; in assay [10], 12.5 µM; in assay [3] it was 5.23 µM; in assay [4] it was 1.54 µM; in assay [5], 1.43 µM. For the same compound, the GI50 in [6] is 21.8 µM; in [7], 5.93 µM; in assay [8], 4.91 µM. Moreover, the TGI in [1] amounted to 34.2 µM; in assay [2], 5.72 µM; in [10] it was 29.6 µM; in assay [3] it was 18.8 µM; in assay [4], 4.05 µM; in assay [5], 11.1 µM. Moreover, the TGI in assay [6] was found to be 62.3 µM; in assay [7] it was 19.9 µM; in [8] it was 18.4 µM.

As to `COc1ccc(-c2cc3c4c(nc5ccccc5c4c2)CC(c2cc(OC)c(OC)c(OC)c2)O3)cc1` (stereo not drawn), the GI50 was 2.34 µM in [1]; 3.78 µM in [2]; 1.52 µM in assay [10]; 2.36 µM in assay [4]; greater than 100 µM in assay [5]; 2.92 µM in assay [6]. Besides, the GI50 in assay [7] was 2.98 µM; in assay [9] it was 4.08 µM. Besides, the TGI in [1] is 7.53 µM; in assay [2] it was greater than 100 µM; in [10] it was 3.06 µM; in assay [4], 79.5 µM; in [5] it was greater than 100 µM; in assay [6] it was 31.7 µM. The TGI in [7] is 12.5 µM; in assay [9], 17.2 µM.

Regarding `COc1cc2c(-c3nc4cc(Cl)c(F)cc4s3)cc(=O)oc2c(C)c1OC`, the GI50 in assay [10] was 0.307 µM; in assay [3], 1.66 µM; in [6] it was 0.648 µM; in assay [7], 1.67 µM; in [8], 0.154 µM; in assay [9] it was 1.63 µM. The TGI in assay [10] was 0.78 µM; in assay [3] it was 3.32 µM; in [6], 1.82 µM; in [7], 3.16 µM; in assay [8], 0.339 µM; in assay [9] it was 3.03 µM.

`CC1OCC2OC(C)OC(C3C4=C(CC(C)(C)CC4=O)OC4=C3C(=O)CC(C)(C)C4)C2O1` (stereo not drawn): the TGI in assay [1], in [2], in [10], in [3], in assay [4] and in assay [5] was greater than 100 µM in each case. For the same compound, the TGI in assay [7], in assay [8] and in assay [9] was greater than 100 µM each time.

In the case of `CN(C(=O)C1CCCCC1)c1ccccc1I(=O)=O`, the GI50 was 16.4 µM in assay [1]; 37.8 µM in [2]; 36.8 µM in [10]; 14.6 µM in assay [3]; 43.7 µM in assay [4]; 18 µM in assay [5]. In addition, the results for the GI50 in [6], in assay [8] and in assay [9] were 42.4 µM, 51 µM and 32.4 µM, respectively. Moreover, the TGI was 44.2 µM in assay [1]; greater than 100 µM in assay [2]; greater than 100 µM in assay [10]; 29.8 µM in assay [3]; greater than 100 µM in [4]; 51.8 µM in assay [5]. Moreover, the TGI in [6], in [8] and in assay [9] was greater than 100 µM each time.
